# Assays:
# [1] = test system: Phaffia rhodozyma ENZA-A169; assay type: cell-based
# [2] = test system: Phaffia rhodozyma ENZA-M10; assay type: cell-based
structure (smiles),measurement,setting,value
"CSC [DMS, dimethylsulphide]","kill curve, kinetics of death",[1],follows 1st order kinetics
same,"kill curve, speed of killing",[1],killed much more quickly than E1
same,"kill curve, shape",[2],"definite ""bump"""
